Experimental data: patent publication US4826994A, “Production of substituted 1,3,4,9-tetrahydropyrano(3,4-B)indole-1-acetic acids” (American Home Products Corporation, priority 1988, dated 1989)

Tests used:
[1] = Preventative Adjuvant Edema (acute anti-inflammatory effect in rats); assay type: in vivo, Male Sprague Dawley rats; set-up: inhibition in vivo: dose or concentration left out as unconfirmed; conditions: p.o.
Method: This test is a primary screen for anti-inflammatory drugs.
Male Sprague Dawley rats (180-200 g) are used. The animals have free access to water but food is withdrawn 18 hours before testing.
Drug Preparations and Administration:
Freund's complete adjuvant is prepared by suspending 5 mg of killed and dried Mycobacterium butyricum (Difco) in 1 mL mineral oil. The test compounds are dissolved, of suspended in 0.5% Tween 80 in distilled water according to their solubility. For primary screening all drugs are administered by gastric lavage at the arbitrary dosage of 25 mg/kg, p.o. in a volume of 0.5 mL/100 g body weight to groups of 10 animals.
The method is essentially that described by Wax et al, J. Pharmacol. Exp. Ther., 192, 166-171 (1975). Groups of rats are injected intradermally in the left hind paw with 0.1 mL of Freund's complete adjuvant. The test compound or vehicle is administered immediately before the adjuvant, 24 hours and 48 hours after the adjuvant (days 0, 1 and 2). The injected hind paw volume is measured before the injection of adjuvant and 24 hrs. after the last drug administration (day 3) by means of a plethysmometer (Buxco Electronics Inc.). The difference between the hind paw volume on day 0 and day 3 represents the edema volume. Etodolac (25 mg/kg, p.o.) is included as a positive control.
The mean edema volume (expressed as mL±SEM) is calculated for each group and the percentage protection conferred by the drug is calculated: [formula] where c is the mean edema volume for the vehicle-treated (0.5% Tween 80 in distilled water) controls and t is the mean edema volume for the drug treated group.

[2] = Drug Effects on Phenylbenzoquinone-induced Writhing in Mice; assay type: in vivo, Male Swiss albino mice; conditions: Mus musculus, po, value in parentheses, read-out: Phenylquinone Writhing in Mice, ED50
Method: A further test used to determine the utility of the compounds of the present invention is designated: Drug Effects on Phenylbenzoquinone-induced Writhing in Mice
The objective of this test is to determine the ability of test drugs to inhibit the nociceptive (pain) response of mice injected with a chemical irritant. This test is a primary screen for both peripheral and centrally acting analgesic drugs.
Male Swiss albino mice (15-25 g). The animals are fasted for 18 hours prior to use but have free access to water.
(§1) Drug Preparation and Administration:
Drugs are dissolved or suspended according to their solubility in 0.5% Tween 80 in distilled water. They are administered by gastric gavage in a volume of 5 mL/kg. For primary screening all drugs are administered at the arbitrary dosage of 25 mg/kg, p.o. to a group of 10 mice.
A modification of the method of Siegmund et al, Proc. Soc. Exp. Biol. Med., 95, 729-731 (1957) is used. Groups of 5 mice are dosed with the test compound or vehicle control. Sixty minutes later the animals are injected i.p. with 0.3 mL/20 g body weight of a 0.02% solution of phenylbenzoquinone (PBQ; 2-phenyl-1,4-benzoquinone) and placed in individual observation boxes. The number of writhing or abdominal squirming movements made by each mouse during the following 15 min. period is counted. The experiment is repeated with another group of 5 mice and the mean number of writhes per mouse for a group of 10 mice is calculated.
Drug treated and vehicle-treated control groups are compared and the percentage protection conferred by the drug is calculated: [formula] where c=mean number of writhes in the control group where t=mean number of writhes in the test drug group

[3] = Randall Selitto Test in the Rat (pain threshold in inflamed paw); assay type: in vivo, Male Sprague Dawley rats; conditions: Rattus norvegicus, po, rats, 1 hour after dosing; value in parentheses; read-out: Randall Selitto Test in the Rat, ED50 (dose which causes analgesia in 50% of the animals)
Text: An additional test used to determine the utility of the compounds of the present invention is designated: Randall Selitto Test in the Rat
The objective of this test is to assess the potency of peripheral and central acting drugs in inhibiting the reaction of rats to painful stimulation applied to an inflamed paw.
Male Sprague Dawley rats (180-200 g) are used. The animals are fasted overnight prior to drug administration.
as §1
Freund's Complete Adjuvant (FCA) is prepared by suspending 5 mg killed and dried mycobacterium butyricum (Difco) in 1 mL mineral oil. The test compounds are dissolved or suspended in 0.5% Tween 80 in distilled water according to their solubility. They are administered by gastric gavage in a volume of 0.5 mL/100 g body weight to groups of 10 animals.
Ten rats are used per group. The method is essentially that described by Randall and Selitto, Arch. Int. Pharmacodyn. 111, 409 (1957) and the apparatus which is used to apply pressure to the paw (Analgesi-meter for the rat paw, Ugo Basile, Comeria, Italy) is a modification of that described by Gilfoil et al, J. Pharmacol. 142, 1 (1963). The instrument is basically a device which exerts a force that increases at a constant rate. The force is continuously monitored by a pointer moving along a linear scale and is measured in grams. The inflammatory reaction is induced in the left hind paw of rats of injecting 0.1 mL of Freund's adjuvant intradermally. The test compound or vehicle is administered 24 hours after the adjuvant. The pain threshold (vocalization) is determined 1 hour later in the inflamed paw of the treated and control groups.
Presentation of Results and Criteria for Activity:
Each animal which has a reading 1.5 times greater than the mean reading of the control-group will be considered as responsive (having an analgesic effect) to treatment. The number of animals showing an analgesic effect is then determined in each group.
The ED50 (dose which causes analgesia in 50% of the animals) using at least 3 doses is then determined, by the method described in Litchfield and Wilcoxon, J. Pharmacol. Exp. Ther., 96, 99-113 (1949).

[4] = Drug Effects on Phenylbenzoquinone-induced Writhing in Mice; assay type: in vivo, Male Swiss albino mice; conditions: Mus musculus, po, Tested at 10 mg/kg, p.o., read-out: Phenylquinone Writhing in Mice, percent inhibition
[5] = Rattus norvegicus, po, 72 h, read-out: Preventative Adjuvant Edema, percent inhibition

SMILES | Preventative Adjuvant Edema, percent inhibition ([1]; 25 mg/kg) | ED50 [2] | ED50 [3] | inhibition in vivo [1, 5] | inhibition in vivo at 10 mg/kg [4] | inhibition in vivo at 25 mg/kg ([1]; Rattus norvegicus, po, 72 h, 25 mg/kg, read-out: Preventative Adjuvant Edema, percent inhibition)
CCC1(CC(=O)O)OCC(Cc2ccccc2)c2c1[nH]c1c(C)cccc21 (single isomer, unassigned) [Example 22, 1-ethyl-1,3,4,9-tetrahydro-8-methyl-4-(phenylmethyl)-pyrano[3,4-b]indole-1-acetic acid] | 47% | 4.7 mg/kg | 0.25 mg/kg |  |  | 
CCC1(CC(=O)O)OCC(Cc2ccc(Cl)cc2)c2c1[nH]c1ccccc21 (single isomer, unassigned) [Example 42] |  |  |  | 18% | 24% | 
CCC1(CC(=O)O)OCC(Cc2ccc(F)cc2)c2c1[nH]c1ccccc21 (single isomer, unassigned) [Example 43] |  |  |  | 25% | 47% | 
CCC1(CC(=O)O)OCC(Cc2cccc(C(F)(F)F)c2)c2c1[nH]c1ccccc21 (single isomer, unassigned) [Example 44] |  |  |  | 25% | 22% | 
CCC1(CC(=O)O)OCC(Cc2ccc(F)cc2F)c2c1[nH]c1ccccc21 (single isomer, unassigned) [Example 45] |  |  |  | 45% | 29% | 
CCC1(CC(=O)O)OCC(Cc2ccccc2)c2c1[nH]c1ccccc21 (single isomer, unassigned; isomer a) [Example 1, 1-Ethyl-1,3,4,9-tetrahydro-4-(phenylmethyl)-pyrano[3,4-b]indole-1-acetic Acid (Isomer A)] |  | 1.9 mg/kg | 0.003 mg/kg |  |  | 37%
